US11723359B2, “Disposable antimicrobial wipes and methods of making” (Ecolab USA Inc., priority 2015, dated 2023)

Experiments:
[1] = pH of citric acid and acetic acid at varying concentrations; type: physicochemical
Method: Wipes were prepared as described in Example 1 above. Citric acid at concentrations of Oppm, 500 ppm, 1000 ppm, 2000 and 4000 ppm were separately applied to the Tencel® substrates along with Bardac 205 quaternary ammonium. The wipes were prepared in duplicate. The organic acid and quaternary ammonium chemicals were added to the textile simultaneously. The following is a table showing the pH of citric acid and acetic acid at varying concentrations: […]

[2] = Squeeze method: expression of quaternary ammonium from treated Tencel wipes, quantified by HPLC; type: physicochemical; settings: Example 3, FIG. 4, citric acid 0, 500, 1000, 2000, 4000 ppm with Bardac 205 on Tencel, 24 hours soak
Method: Wipes were prepared as described in Example 1 above. […] The wipes were prepared in duplicate. The organic acid and quaternary ammonium chemicals were added to the textile simultaneously.

O=C(O)CC(O)(CC(=O)O)C(=O)O [Citric Acid, citric acid] showed a pH ([1]; concentration 10 ppm) of 2.48, a pH ([1]; concentration 50 ppm) of 2.58 and a pH ([1]; concentration 500 ppm) of 2.65.

Molecule CC(=O)O [Acetic Acid, acetic acid] has a pH ([1]; concentration 10 ppm) of 2.69, a pH ([1]; concentration 50 ppm) of 2.62 and a pH ([1]; concentration 500 ppm) of 2.56.

With alkyl dimethyl benzyl ammonium chloride the “release of dimethyl benzyl ammonium chloride from wipe” value [2] was “As the citric acid concentration increased, the amount of quaternary ammonium released also increased”.
